Reference: patent US8802597B2, “Herbicidal pyrimidines” (E I du Pont de Nemours and Company, priority 2003, dated 2014)

Columns and labels:
Assay type in all cases: in vivo
[1] = test system: smallflower umbrella sedge (Cyperus difformis); experiment: Test E flooded paddy water application; settings: Flood, 21 days, scale 0 to 100 (0 no effect, 100 complete control)
Description: (§1) Three plastic pots (ca. 16-cm diameter) per rate were partially filled with sterilized Tama silt loam soil comprising a 35:50:15 ratio of sand, silt and clay and 2.6% organic matter. Separate plantings for each of the three pots were as follows. Seeds from the U.S. of ducksalad (Heteranthera limosa), smallflower umbrella sedge (Cyperus difformis) and purple redstem (Ammannia coccinea), were planted into one 16-cm pot for each rate. Seeds from the U.S. of rice flatsedge (Cyperus iria), bearded (brdd.) sprangletop (Leptochloa fusca ssp. fascicularis), one stand of 9 or 10 water seeded rice seedlings (Oryza sativa cv. ‘Japonica-M202’), and one stand of 6 transplanted rice seedlings (Oryza sativa cv. ‘Japonica-M202’) were planted into one 16-cm pot for each rate. Seeds from the U.S. of barnyardgrass (Echinochloa crus-galli), late watergrass (Echinochloa oryzicola), early watergrass (Echinochloa oryzoides) and junglerice (Echinochloa colona) were planted into one 16-cm pot for each rate. Plantings were sequential so that crop and weed species were at the 2.0 to 2.5-leaf stage at time of treatment.
(§2) Potted plants were grown in a greenhouse with day/night temperature settings of 29.5/26.7° C., and supplemental balanced lighting was provided to maintain a 16-hour photoperiod. Test pots were maintained in the greenhouse until test completion.
(§3) At time of treatment, test pots were flooded to 3 cm above the soil surface, treated by application of test compounds directly to the paddy water, and then maintained at that water depth for the duration of the test. Effects of treatments on rice and weeds were visually evaluated by comparison to untreated controls after 21 days. Plant response ratings, summarized in Table E, are based on a scale of 0 to 100 where 0 is no effect and 100 is complete control. A dash (-) response means no test result.

[2] = test system: barnyardgrass (Echinochloa crus-galli); experiment: Test E flooded paddy water application; settings: Flood, 21 days, scale 0 to 100 (0 no effect, 100 complete control)
Description: as §1, §2, §3

[3] = test system: rice flatsedge (Cyperus iria); experiment: Test E flooded paddy water application; settings: Flood, 21 days, scale 0 to 100 (0 no effect, 100 complete control)
Description: as §1, §2, §3

[4] = test system: water seeded rice seedlings (Oryza sativa cv. ‘Japonica-M202’); experiment: Test E flooded paddy water application; settings: Flood, 21 days, scale 0 to 100 (0 no effect, 100 complete control)
Description: as §1, §2, §3

[5] = test system: transplanted rice seedlings (Oryza sativa cv. ‘Japonica-M202’); experiment: Test E flooded paddy water application; settings: Flood, 21 days, scale 0 to 100 (0 no effect, 100 complete control)
Description: as §1, §2, §3

[6] = test system: early watergrass (Echinochloa oryzoides); experiment: Test E flooded paddy water application; settings: Flood, 21 days, scale 0 to 100 (0 no effect, 100 complete control)
Description: as §1, §2, §3

[7] = test system: junglerice (Echinochloa colona); experiment: Test E flooded paddy water application; settings: Flood, 21 days, scale 0 to 100 (0 no effect, 100 complete control)
Description: as §1, §2, §3

[8] = test system: purple redstem (Ammannia coccinea); experiment: Test E flooded paddy water application; settings: Flood, 21 days, scale 0 to 100 (0 no effect, 100 complete control)
Description: as §1, §2, §3

[9] = test system: late watergrass (Echinochloa oryzicola); experiment: Test E flooded paddy water application; settings: Flood, 21 days, scale 0 to 100 (0 no effect, 100 complete control)
Description: as §1, §2, §3

[10] = test system: bearded (brdd.) sprangletop (Leptochloa fusca ssp. fascicularis); experiment: Test E flooded paddy water application; settings: Flood, 21 days, scale 0 to 100 (0 no effect, 100 complete control)
Description: as §1, §2, §3

[11] = test system: ducksalad (Heteranthera limosa); experiment: Test E flooded paddy water application; settings: Flood, 21 days, scale 0 to 100 (0 no effect, 100 complete control)
Description: as §1, §2, §3

[12] = test system: barnyardgrass (Echinochloa crus-galli); experiment: Test A pre/postemergence
Method in brief: (§4)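 Greenhouse herbicide test with preemergence directed soil spray and postemergence foliar spray at the 1- to 2-leaf stage; visual control rating 0–100 versus untreated at ~10 days.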

[13] = test system: velvetleaf (Abutilon theophrasti); experiment: Test A pre/postemergence
Method in brief: as §4

[14] = test system: redroot pigweed (Amaranthus retroflexus); experiment: Test A pre/postemergence
Method in brief: as §4

[15] = test system: crabgrass (Digitaria sanguinalis); experiment: Test A pre/postemergence
Method in brief: as §4

[16] = test system: morningglory (Ipomoea spp.); experiment: Test A pre/postemergence
Method in brief: as §4

[17] = test system: giant foxtail (Setaria faberi); experiment: Test A pre/postemergence
Method in brief: as §4

[18] = Postemergence, 125 g ai/ha, 0 to 100 scale (0 no effect, 100 complete control)
[19] = Postemergence, 500 g ai/ha, 0 to 100 scale (0 no effect, 100 complete control)
[20] = Preemergence, 125 g ai/ha, 0 to 100 scale where 0 is no effect and 100 is complete control, approximately ten days
[21] = Preemergence, 500 g ai/ha, 0 to 100 scale where 0 is no effect and 100 is complete control, approximately ten days

Structure (SMILES): CCOC(=O)c1nc(-c2ccc(C)cc2)nc(N)c1Cl [Compound 62]
- Sedge, Umbrella plant response rating ([1]; 32 g ai/ha): 70
- Sedge, Umbrella plant response rating ([1]; 64 g ai/ha): 80
- Sedge, Umbrella plant response rating ([1]; 125 g ai/ha): 95
- Sedge, Umbrella plant response rating ([1]; 250 g ai/ha): 100
- Sedge, Umbrella plant response rating ([1]; 500 g ai/ha): 100
- Barnyardgrass plant response rating ([2]; 32 g ai/ha): 0
- Barnyardgrass plant response rating ([2]; 64 g ai/ha): 0
- Barnyardgrass plant response rating ([2]; 125 g ai/ha): 0
- Barnyardgrass plant response rating ([2]; 250 g ai/ha): 50
- Barnyardgrass plant response rating ([2]; 500 g ai/ha): 100
- Flatsedge, Rice plant response rating ([3]; 32 g ai/ha): 0
- Flatsedge, Rice plant response rating ([3]; 64 g ai/ha): 0
- Flatsedge, Rice plant response rating ([3]; 125 g ai/ha): 45
- Flatsedge, Rice plant response rating ([3]; 250 g ai/ha): 65
- Flatsedge, Rice plant response rating ([3]; 500 g ai/ha): 100
- Rice, Water Seeded plant response rating ([4]; 32 g ai/ha): 0
- Rice, Water Seeded plant response rating ([4]; 64 g ai/ha): 0
- Rice, Water Seeded plant response rating ([4]; 125 g ai/ha): 0
- Rice, Water Seeded plant response rating ([4]; 250 g ai/ha): 10
- Rice, Water Seeded plant response rating ([4]; 500 g ai/ha): 60
- Rice, Transplanted plant response rating ([5]; 32 g ai/ha): 0
- Rice, Transplanted plant response rating ([5]; 64 g ai/ha): 0
- Rice, Transplanted plant response rating ([5]; 125 g ai/ha): 0
- Rice, Transplanted plant response rating ([5]; 250 g ai/ha): 0
- Rice, Transplanted plant response rating ([5]; 500 g ai/ha): 30
- Watergrass, Early plant response rating ([6]; 32 g ai/ha): 0
- Watergrass, Early plant response rating ([6]; 64 g ai/ha): 0
- Watergrass, Early plant response rating ([6]; 125 g ai/ha): 0
- Watergrass, Early plant response rating ([6]; 250 g ai/ha): 0
- Watergrass, Early plant response rating ([6]; 500 g ai/ha): 0
- Junglerice plant response rating ([7]; 32 g ai/ha): 20
- Junglerice plant response rating ([7]; 64 g ai/ha): 30
- Junglerice plant response rating ([7]; 125 g ai/ha): 40
- Junglerice plant response rating ([7]; 250 g ai/ha): 50
- Junglerice plant response rating ([7]; 500 g ai/ha): 65
- Redstem plant response rating ([8]; 32 g ai/ha): 75
- Redstem plant response rating ([8]; 64 g ai/ha): 85
- Redstem plant response rating ([8]; 125 g ai/ha): 85
- Redstem plant response rating ([8]; 250 g ai/ha): 95
- Redstem plant response rating ([8]; 500 g ai/ha): 100
- Watergrass, Late plant response rating ([9]; 32 g ai/ha): 0
- Watergrass, Late plant response rating ([9]; 64 g ai/ha): 20
- Watergrass, Late plant response rating ([9]; 125 g ai/ha): 20
- Watergrass, Late plant response rating ([9]; 250 g ai/ha): 20
- Watergrass, Late plant response rating ([9]; 500 g ai/ha): 20
- Sprangletop, Brdd. plant response rating ([10]; 32 g ai/ha): 0
- Sprangletop, Brdd. plant response rating ([10]; 64 g ai/ha): 0
- Sprangletop, Brdd. plant response rating ([10]; 125 g ai/ha): 30
- Sprangletop, Brdd. plant response rating ([10]; 250 g ai/ha): 45
- Sprangletop, Brdd. plant response rating ([10]; 500 g ai/ha): 75
- Ducksalad plant response rating ([11]; 32 g ai/ha): 100
- Ducksalad plant response rating ([11]; 64 g ai/ha): 100
- Ducksalad plant response rating ([11]; 125 g ai/ha): 100
- Ducksalad plant response rating ([11]; 250 g ai/ha): 100
- Ducksalad plant response rating ([11]; 500 g ai/ha): 100
- Plant response rating, Barnyardgrass [12, 18]: 15
- Plant response rating, Barnyardgrass [12, 19]: 80
- Plant response rating, Barnyardgrass [12, 20]: 0
- Plant response rating, Barnyardgrass [12, 21]: 45
- Plant response rating, Velvetleaf [13, 18]: 90
- Plant response rating, Velvetleaf [13, 19]: 95
- Plant response rating, Velvetleaf [13, 20]: 0
- Plant response rating, Velvetleaf [13, 21]: 75
- Plant response rating, Pigweed [14, 18]: 30
- Plant response rating, Pigweed [14, 19]: 60
- Plant response rating, Pigweed [14, 20]: 0
- Plant response rating, Pigweed [14, 21]: 75
- Plant response rating, Crabgrass [15, 18]: 0
- Plant response rating, Crabgrass [15, 19]: 35
- Plant response rating, Crabgrass [15, 20]: 0
- Plant response rating, Crabgrass [15, 21]: 60
- Plant response rating, Morningglory [16, 18]: 10
- Plant response rating, Morningglory [16, 19]: 35
- Plant response rating, Morningglory [16, 20]: 0
- Plant response rating, Morningglory [16, 21]: 35
- Plant response rating, Foxtail, Giant [17, 18]: 0
- Plant response rating, Foxtail, Giant [17, 19]: 80
- Plant response rating, Foxtail, Giant [17, 20]: 0
- Plant response rating, Foxtail, Giant [17, 21]: 0
